Counter-ions that a name gives are not always drawn.
assay: CD interaction of perfume components; assay type: physicochemical; settings: weak = cyclodextrin-compatible; significant or strong = cyclodextrin-incompatible
Description: The following table illustrates the molecular weight property of some of the cyclodextrin-incompatible enduring (hydrophobic) perfume materials (i.e. having significant or strong CD interaction) versus cyclodextrin-compatible perfume materials (i.e. having weak CD interaction).

| Compound | CD interaction |
| --- | --- |
| CC(C=O)Cc1ccc(C(C)C)cc1 (centres unmarked) [Cymal] | strong |
| CCOC(=O)c1ccccc1C(=O)OCC [Diethyl Phthalate] | weak |
| CC(=O)OC1CC2CC1C1CC=CC21 (centres unmarked) [Flor Acetate] | strong |
| CCC(=O)OC1CC2CC1C1CC=CC21 (centres unmarked) [Frutene] | strong |
| CC1COCc2cc3c(cc21)C(C)(C)C(C)C3(C)C (centres unmarked) [Galaxolide] | weak |
| CCCCCCOC(=O)c1ccccc1O [Hexyl Salicylate] | weak |
| CCCCCCC(C=O)=Cc1ccccc1 [Hexyl cinnamic Aldehyde] | weak |
| CC(=O)C1(C)CC2=C(CCCC2(C)C)CC1C (centres unmarked) [Iso-E Super] | weak |
| CCCCCCCCCCCCCC(=O)OC(C)C [Iso-propyl Myristate] | weak |
| CC(=O)C(C)=C(C)C(C)C(C)(C)C (centres unmarked) [Koavone] | strong |
| CC(C=O)Cc1ccc(C(C)(C)C)cc1 (centres unmarked) [Lilial, p-t-bucinal] | strong |
| CC(C)(O)CCCC1=CCC(C=O)CC1 (centres unmarked) [Lyral] | weak |
| CCCCCC1C(=O)CCC1CC(=O)OC (centres unmarked) [Methyl Dihydro Jasmonate] | weak |
| O=C(Cc1ccccc1)OCCc1ccccc1 [Phenyl-Ethyl-Phenyl Acetate] | weak |
| CC(=O)OC(C)(C)C1CC=C(C)CC1 (centres unmarked) [Terpinyl Acetate] | significant |
| CCC(C)(O)CCCC(C)C (centres unmarked) [Tetrahydrolinalol] | significant |
| CC(=O)OC1CCC(C(C)(C)C)CC1 (centres unmarked) [Vertenex, para-tert-butylcyclohexyl acetate] | strong |
| CC(=O)/C=C/C1C(C)=CCCC1(C)C (centres unmarked) [a-ionone] | strong |
| a-Me Ionone | strong |

assay: Complexation constant of phenolphthalein with beta-cyclodextrin, absorbance at 550 nm; assay type: binding; settings: room temperature, 4.0 x 10^-3 mol/l Na2CO3 solution, pH 10.5
Description: A spectral displacement method with phenolphthalein is used to determine the complexation constant between cyclodextrin and a given material, especially for surfactants. This method of determining complexation constants with cyclodextrins is described in detail in the following references: Sasaki, KJ., Christian, S.D., and Tucker, E.E., "Study of the Stability of 1:1 Complexes Between Aliphatic Alcohols and b-Cyclodextrins in Aqueous Solution," Fluid Phase Equilibria, Vol. 49, (Amsterdam, Elsevier Science Publishers, 1989), pp. 281-89. Further information regarding spectral displacement methods can be found in other references, e.g. in Wilson, L.D., Siddall, S.R, and Verrall RE., "A Spectral Displacement Study of the Binding Constants of Cyclodextrin-Hydrocarbon and - Fluorocarbon Surfactant Inclusion Complexes," Canadian Journal of Chemistry, Vol. 75, (NRC Canada 1997), pp. 927-933. […]
The complexation constant of a given material with cyclodextrin is obtained by an absorbance measurement in the visible region at 550 nm that is performed with a spectrophotometer at room temperature. […] Complexation constants of cyclodextrin-compatible and/or cyclodextrin-incompatible materials arc determined with using the free, uncomplexed phenolphthalein concentration obtained by absorbance at 550 nm.

| Compound | complexation constant of phenolphthalein with beta-cyclodextrin |
| --- | --- |
| O=C1OC(c2ccc(O)cc2)(c2ccc(O)cc2)c2ccccc21 [phenolphthalein] | about 21,000 M^-1 |

assay: Elevation of surfactant surface tension in the presence of cyclodextrin; assay type: physicochemical; settings: in the presence of a typical cyclodextrin like hydroxypropyl beta-cyclodextrin and methylated beta-cyclodextrin (1%)
Description: Cyclodextrin-incompatible surfactants generally can be readily identified by the noticeable effect of cyclodextrin on the surface tension provided by the cyclodextrin-incompatible surfactant This is achieved by determining the surface tension (in dyne/cm) of aqueous solutions of the cyclodextrin-incompatible surfactant in the presence and in the absence of 1% of a specific cyclodextrin in the solutions. The aqueous solutions contain cyclodextrin-incompatible surfactant at concentrations of approximately 0.5%, 0.1%, 0.01%, and 0.005%. The cyclodextrin can affect the surface activity of a surfactant by elevating the surface tension of the surfactant solution. […]
Suitable cyclodextrin-compatible surfactants can also be readily identified by the absence of effect of cyclodextrin on the surface tension provided by the surfactant. […]

| Compound | elevation in surface tension [%] |
| --- | --- |
| CCCCCCCCCCCCOS(=O)(=O)[O-].[Na+] [Sodium dodecyl sulfate] | > 10 |
| dodecanolpoly(6)ethoxylate | > 10 |

assay: Complexation constant with cyclodextrin, spectral displacement method with phenolphthalein; assay type: binding; settings: unit not given, the text gives complexation constants in M^-1
Description: A spectral displacement method with phenolphthalein is used to determine the complexation constant between cyclodextrin and a given material, especially for surfactants. This method of determining complexation constants with cyclodextrins is described in detail in the following references: Sasaki, KJ., Christian, S.D., and Tucker, E.E., "Study of the Stability of 1:1 Complexes Between Aliphatic Alcohols and b-Cyclodextrins in Aqueous Solution," Fluid Phase Equilibria, Vol. 49, (Amsterdam, Elsevier Science Publishers, 1989), pp. 281-89. Further information regarding spectral displacement methods can be found in other references, e.g. in Wilson, L.D., Siddall, S.R, and Verrall RE., "A Spectral Displacement Study of the Binding Constants of Cyclodextrin-Hydrocarbon and - Fluorocarbon Surfactant Inclusion Complexes," Canadian Journal of Chemistry, Vol. 75, (NRC Canada 1997), pp. 927-933.
The test method is based on the fact that phenolphthalein will complex with cyclodextrin and in complexed form is colorless. However, it has a strong color at pH 10.5 when in non-complexed form. Other, cyclodextrin-incompatible, materials themselves complex with the cyclodextrin and prevent the phenolphthalein from doing so. Thus the higher the complexation constant of the other component with cyclodextrin, the more non-complexed phenolphthalein will be present and the stronger the observed color.
The complexation constant of a given material with cyclodextrin is obtained by an absorbance measurement in the visible region at 550 nm that is performed with a spectrophotometer at room temperature. All solutions are prepared in 4.0 x 10^-3 mol/l Na2CO3 solution to maintain a constant pH. The concentration of phenolphthalein is kept constant at 3.0 x 10^-5 mol/l. Cyclodextrin concentration and surfactant concentration are varied. Here, optimum parameter values for absorption coefficient of phonolphthalein at 550 nm is 33,000 M^-1 cm^-1, and the complexation constants of phenolphthalein with cyclodextrin and cyclodextrin derivatives are preliminary obtained. […] Complexation constants of cyclodextrin-compatible and/or cyclodextrin-incompatible materials arc determined with using the free, uncomplexed phenolphthalein concentration obtained by absorbance at 550 nm.

| Compound | Complexation Constant (K) |
| --- | --- |
| CCCCCCCCCCCC[N+](C)(C)C.[Br-] [Dodecyltrimethylammonium bromide] | about 18100 |
| CCCCCCCCCCCCOS(=O)(=O)[O-].[Na+] [Sodium dodecyl sulfate] | about 22000 |
| CCCCCCCCCCCC(=O)[O-].[Na+] [Sodium laurate] | about 16000 |
| Lauramine oxide | about 7500 |
| Lawreth-6 | about 10000 |

assay: not given; settings: cited from earlier work

| Compound | solubility in water [%] |
| --- | --- |
| [H]/N=C(\N/C(=N/[H])NCCCCCCNC(=N)NC(=N)Nc1ccc(Cl)cc1)Nc1ccc(Cl)cc1 [diacetate salt, 1,1'-hexamethylene bis(5-(p-chlorophenyl)biguanide)] | 1.8 |
| [H]/N=C(\N/C(=N/[H])NCCCCCCNC(=N)NC(=N)Nc1ccc(Cl)cc1)Nc1ccc(Cl)cc1 [digluconate salt, 1,1'-hexamethylene bis(5-(p-chlorophenyl)biguanide)] | 70 |
